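Cultured in 96-well plates, cells were exposed to test compound for 48 hours across five concentrations. The concentration for full growth arrest is given as TGI.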
Columns and labels:
Experiment in all cases: NCI tumour cell line growth inhibition, 48 h
[1] = test system: SNB-75 CNS
[2] = test system: SK-MEL-5 melanoma
[3] = test system: RXF 393 renal
[4] = test system: T-47D breast
[5] = test system: TK-10 renal
[6] = test system: SW-620 colon
[7] = test system: IGROV1 ovarian
[8] = test system: OVCAR-4 ovarian
[9] = test system: OVCAR-8 ovarian
[10] = test system: SNB-19 CNS
[11] = test system: BT-549 breast
[12] = test system: SF-539 CNS
[13] = test system: 786-0 renal
[14] = test system: M14 melanoma
[15] = test system: SK-MEL-28 melanoma
[16] = test system: CAKI-1 renal
[17] = test system: MDA-MB-231 breast
[18] = test system: HCC-2998 colon
[19] = test system: A549 NSCLC
[20] = test system: UACC-257 melanoma
[21] = test system: HOP-62 NSCLC
[22] = test system: KM12 colon
[23] = test system: HL-60(TB) leukemia
[24] = test system: SF-295 CNS
[25] = test system: MDA-MB-435
[26] = test system: NCI-H226 lung
[27] = test system: OVCAR-5 ovarian
[28] = test system: DU-145 prostate
[29] = test system: MDA-N
[30] = test system: ACHN renal
[31] = test system: EKVX NSCLC
[32] = test system: HCT-15 colon
[33] = test system: LOX IMVI melanoma
[34] = test system: UO-31 renal
[35] = test system: UACC-62 melanoma
[36] = test system: HOP-92 NSCLC
[37] = test system: HT29 colon
[38] = test system: U251 CNS
[39] = test system: A498 renal
[40] = test system: SN12C renal
[41] = test system: SK-OV-3 ovarian
[42] = test system: NCI/ADR-RES ovarian
[43] = test system: SF-268 CNS
[44] = test system: NCI-H23 lung
[45] = test system: MOLT-4 leukemia
[46] = test system: MCF7 breast
[47] = test system: HCT-116 colon
[48] = test system: OVCAR-3 ovarian
[49] = test system: COLO 205 colon
[50] = test system: SK-MEL-2 melanoma
[51] = test system: NCI-H460 lung
[52] = test system: CCRF-CEM leukemia
[53] = test system: PC-3 prostate
[54] = test system: RPMI-8226 leukemia
[55] = test system: SR leukemia
[56] = test system: K-562 leukemia
[57] = test system: HS 578T breast
[58] = test system: NCI-H522 lung
[59] = test system: MALME-3M melanoma

SMILES: CC(CO)C1C[C@H](O)[C@@]2(C)CC(=O)C=C(CO)[C@@H]2C1 (some centres undefined)
- TGI [1]: > 100 µM
- TGI [2]: > 100 µM
- TGI [3]: > 100 µM
- TGI [4]: > 100 µM
- TGI [5]: > 100 µM
- TGI [6]: > 100 µM
- TGI [7]: > 100 µM
- TGI [8]: > 100 µM
- TGI [9]: > 100 µM
- TGI [10]: > 100 µM
- TGI [11]: > 100 µM
- TGI [12]: > 100 µM
- TGI [13]: > 100 µM
- TGI [14]: > 100 µM
- TGI [15]: > 100 µM
- TGI [16]: > 100 µM
- TGI [17]: > 100 µM
- TGI [18]: > 100 µM
- TGI [19]: > 100 µM
- TGI [20]: > 100 µM
- TGI [21]: > 100 µM
- TGI [22]: > 100 µM
- TGI [23]: > 100 µM
- TGI [24]: > 100 µM
- TGI [25]: > 100 µM
- TGI [26]: > 100 µM
- TGI [27]: > 100 µM
- TGI [28]: > 100 µM
- TGI [29]: > 100 µM
- TGI [30]: > 100 µM
- TGI [31]: > 100 µM
- TGI [32]: > 100 µM
- TGI [33]: > 100 µM
- TGI [34]: > 100 µM
- TGI [35]: > 100 µM
- TGI [36]: > 100 µM
- TGI [37]: > 100 µM
- TGI [38]: > 100 µM
- TGI [39]: > 100 µM
- TGI [40]: > 100 µM
- TGI [41]: > 100 µM
- TGI [42]: > 100 µM
- TGI [43]: > 100 µM
- TGI [44]: > 100 µM
- TGI [45]: > 100 µM
- TGI [46]: > 100 µM
- TGI [47]: > 100 µM
- TGI [48]: > 100 µM
- TGI [49]: > 100 µM
- TGI [50]: > 100 µM
- TGI [51]: > 100 µM

SMILES: COc1cc2cc(C(=O)N3CC(COS(C)(=O)=O)c4c3cc(N)c3ccccc43)[nH]c2c(OC)c1OC (centres undefined)
- TGI [3]: 0.0377 µM
- TGI [4]: > 100 µM
- TGI [5]: < 0.01 µM
- TGI [7]: > 100 µM
- TGI [11]: 0.25 µM
- TGI [13]: > 100 µM
- TGI [52]: > 100 µM
- TGI [15]: > 100 µM
- TGI [16]: 0.0928 µM
- TGI [17]: < 0.01 µM
- TGI [18]: < 0.01 µM
- TGI [19]: > 100 µM
- TGI [20]: > 100 µM
- TGI [21]: > 100 µM
- TGI [23]: > 100 µM
- TGI [53]: 30.5 µM
- TGI [26]: 0.228 µM
- TGI [27]: > 100 µM
- TGI [28]: < 0.01 µM
- TGI [29]: > 100 µM
- TGI [30]: < 0.01 µM
- TGI [31]: < 0.01 µM
- TGI [33]: > 100 µM
- TGI [34]: > 100 µM
- TGI [41]: 1.28 µM
- TGI [43]: > 100 µM
- TGI [46]: > 100 µM
- TGI [47]: > 100 µM
- TGI [48]: > 100 µM
- TGI [49]: > 100 µM
- TGI [54]: > 100 µM
- TGI [50]: > 100 µM
- TGI [51]: > 100 µM

SMILES: C1CCC(OC2CSC2)OC1 (centres undefined)
- TGI [1]: > 100 µM
- TGI [2]: > 100 µM
- TGI [3]: > 100 µM
- TGI [4]: > 100 µM
- TGI [5]: > 100 µM
- TGI [6]: > 100 µM
- TGI [8]: > 100 µM
- TGI [9]: > 100 µM
- TGI [10]: > 100 µM
- TGI [14]: > 100 µM
- TGI [52]: > 100 µM
- TGI [15]: > 100 µM
- TGI [17]: > 100 µM
- TGI [18]: > 100 µM
- TGI [19]: > 100 µM
- TGI [20]: > 100 µM
- TGI [22]: > 100 µM
- TGI [24]: > 100 µM
- TGI [53]: > 100 µM
- TGI [25]: > 100 µM
- TGI [26]: > 100 µM
- TGI [28]: > 100 µM
- TGI [29]: > 100 µM
- TGI [55]: > 100 µM
- TGI [30]: > 100 µM
- TGI [56]: > 100 µM
- TGI [32]: > 100 µM
- TGI [33]: > 100 µM
- TGI [34]: > 100 µM
- TGI [36]: > 100 µM
- TGI [57]: > 100 µM
- TGI [37]: > 100 µM
- TGI [38]: > 100 µM
- TGI [39]: > 100 µM
- TGI [40]: > 100 µM
- TGI [41]: > 100 µM
- TGI [42]: > 100 µM
- TGI [58]: > 100 µM
- TGI [43]: > 100 µM
- TGI [44]: > 100 µM
- TGI [45]: > 100 µM
- TGI [46]: > 100 µM
- TGI [47]: > 100 µM
- TGI [48]: > 100 µM
- TGI [49]: > 100 µM
- TGI [51]: > 100 µM

SMILES: CCCNC(C#N)c1ccc(C(C#N)NCCC)cc1 (centres undefined)
- TGI [2]: > 100 µM
- TGI [3]: > 100 µM
- TGI [4]: > 100 µM
- TGI [5]: > 100 µM
- TGI [6]: > 100 µM
- TGI [7]: > 100 µM
- TGI [8]: > 100 µM
- TGI [9]: > 100 µM
- TGI [10]: > 100 µM
- TGI [11]: > 100 µM
- TGI [12]: > 100 µM
- TGI [13]: > 100 µM
- TGI [14]: > 100 µM
- TGI [52]: > 100 µM
- TGI [15]: > 100 µM
- TGI [16]: > 100 µM
- TGI [17]: > 100 µM
- TGI [18]: > 100 µM
- TGI [19]: > 100 µM
- TGI [20]: > 100 µM
- TGI [59]: > 100 µM
- TGI [22]: > 100 µM
- TGI [23]: > 100 µM
- TGI [24]: > 100 µM
- TGI [53]: > 100 µM
- TGI [25]: > 100 µM
- TGI [26]: > 100 µM
- TGI [27]: > 100 µM
- TGI [28]: > 100 µM
- TGI [29]: > 100 µM
- TGI [30]: > 100 µM
- TGI [56]: > 100 µM
- TGI [31]: > 100 µM
- TGI [32]: > 100 µM
- TGI [33]: > 100 µM
- TGI [34]: > 100 µM
- TGI [35]: > 100 µM
- TGI [36]: > 100 µM
- TGI [57]: > 100 µM
- TGI [37]: > 100 µM
- TGI [38]: > 100 µM
- TGI [39]: > 100 µM
- TGI [40]: > 100 µM
- TGI [41]: > 100 µM
- TGI [42]: > 100 µM
- TGI [58]: > 100 µM
- TGI [43]: > 100 µM
- TGI [44]: > 100 µM
- TGI [45]: > 100 µM
- TGI [47]: > 100 µM
- TGI [48]: > 100 µM
- TGI [49]: > 100 µM
- TGI [50]: > 100 µM
- TGI [51]: > 100 µM

Source: PubChem BioAssay (NCI)
